From paper PMC8156934, “Photophysical Study and Biological Applications of Synthetic Chalcone-Based Fluorescent Dyes” (Molecules, 2021)
Converted amounts (≈) assume the structure as drawn. Read-outs that look alike come from different tables or passages of the source.

Tests used:
E. coli 780 = assay: Antibacterial activity test (MIC, MBC, growth curve); type: cell-based, Escherichia coli; conditions: for MBC / MIC: Escherichia coli
Description: (§1) All bacteria strains were obtained from the Thailand Institute of Scientific and Technological Research (TISTR). The antibacterial activity of chalcones 3a–f was determined by the minimal inhibitory concentration (MIC) and the minimal bactericidal concentration (MBC) against the Gram-positive (S. aureus 1466, TISTR 1466) and Gram-negative (E.coli 780, TISTR 780) bacteria. The stocks of chalcones 3a–f (0.60 mg/mL) were serially diluted in Muller–Hinton (MH) broth to obtain concentrations in the range of 250–1000 µM. The solutions of chalcones 3a–f (100 µL) at different concentrations were added in the culture of the tested bacteria (100 µL) at a concentration of 1 × 10^6 colony-forming units/mL (CFU/mL) in MH broth at 37 °C with shaking at 80 rpm. The bacterial numbers were determined by measuring the optical density at 600 nm by a UV–Vis spectrometer. […] To determine the MBC values, the bacterial cultures (10 µL) containing the solutions of chalcones 3a–f at MIC and three higher concentrations were dropped on MH agar plates.

[1] = Photophysical properties (UV–Vis absorption and fluorescence spectra); type: physicochemical; conditions: for λabs absorption maximum wavelength / ∆λ stokes shifts (λem − λabs) / λem emission maximum wavelength / Φf fluorescence quantum yields: 2 µM; for λem emission maximum wavelength: excited at the maximum absorption wavelength; for Φf fluorescence quantum yields: n = 3, relative to fluorescein in 0.1 M NaOH
Description: All UV–Vis absorption and fluorescence spectra were recorded on a UV–Vis Spectrophotometer (Agilent Technologies Cary 300, Santa Clara, CA, USA) and a Spectrofluorometer (PerkinElmer LS55, Waltham, MA, USA), respectively. In both experiments, the stock solutions of chalcones 3a–f were prepared as 0.5 mM in DMSO. The appropriate amount of the stock solution was added to DMSO, MeOH, and 0.01 M PBS buffer (pH 7.4) with 3% Tween 80 (3 mL) to obtain the final concentration of 2 µM in the testing solutions. For fluorescence experiments, the emission spectra were recorded at the maximum absorbance wavelength of each compound. The fluorescent quantum yields (Φf) were calculated relative to fluorescein in 0.1 M NaOH as a standard (Φf = 0.95).

[2] = Photo-stability test (photobleaching under 250 W blue light); type: physicochemical; conditions: DMSO, 250 W blue light (380–500 nm), after 30 min irradiation
Description: Chalcones 3a–f were dissolved in DMSO at the final concentration of 1 × 10^−6 M for measuring absorption and emission intensity. Then, 3a–f were irradiated at 250 W (blue-lamp) at a distance of 75 cm. The UV–Visible absorption and fluorescence spectra of the solutions were measured at different time points including 0, 1, 5, 10, 15, 20, and 30 min. Photo-stability was reported in terms of photobleaching absorption and emission (%) calculated from the change of absorption and emission intensity at the absorption and emission maxima before and after irradiation.

[3] = pH effect on fluorescence emission; type: physicochemical; conditions: 3% Tween 80
Description: Chalcones 3a–f (2 µM) were dissolved in commercial pH 1–12 buffers purchased from Merck (St. Louis, MO, USA) (glycine/NaCl/HCl for pH 1, citric acid/NaOH/HCl for pH 2–6, Na2HPO4/KH2PO4 for pH 7, boric acid/ KCl/NaOH for pH 8–11, Na3PO4/NaOH for pH 12) in the presence of Tween 80 (3% w/w). The actual pH values of the final buffer solutions were measured by a pH meter. The resulting solutions were examined by a Spectrofluorometer (PerkinElmer LS55) at the maximum absorbance wavelength of each compound.

S. aureus 1466 = assay: Antibacterial activity test (MIC, MBC, growth curve); type: cell-based, Staphylococcus aureus; conditions: for MBC / MIC: Staphylococcus aureus
Description: as §1

HEK-293 = assay: Cell viability MTT assay, normal cells; type: cell-based; conditions: Homo sapiens
Description: (§2) For fluorescence imaging of living cells, human embryonic kidney 293 (HEK-293, ATCC) and human hepatoma cancer cell (HepG2, ATCC) were cultured in Dulbecco′s Modified Eagle′s Medium (DMEM, HyClone) supplemented with 10% Fetal Bovine Serum (FBS, Gibco, Carlsbad, CA, USA) and 1% Penicillin/Streptomycin Solution 100X (Corning, Corning, NY, USA). All cells were cultured in a humidified incubator at 37 °C with 5% CO2. HEK-293 and HepG2 cells, approximately 1 × 10^4 cells, were seeded on 8-well chambered cover glasses (LabTek, Nunc, Carlsbad, CA, USA) and incubated in complete medium for 24 h. After that, the cells were treated with 5 μM stock solutions of 3a–f in DMSO/cell culture medium containing 10% FBS (0.25% DMSO), for 0, 1, 3, and 6 h. Then, the cells were washed twice with 0.01 M PBS before being visualized under a Laser-Scanning Confocal Microscope (Nikon A1Rsi) with a 60× oil immersion objective lens and living cell workstation with the excitation channel at 488 nm.
(§3) The cells were seeded on a 96-well plate, approximately 7 × 10^3 cells per well, and incubated in complete medium for 24 h. After that, the cells were treated with 0, 1, 5, 10, 20, and 50 μM of chalcones 3a–f, and culturing continued for 24 h. After incubation, the cells were washed three times with 10 mM PBS and treated with […] of methylthiazolyldiphenyl-tetrazolium bromide (MTT reagent, 0.5 mg mL^−1, Sigma-Aldrich, St. Louis, MO, USA) for 2–3 h. After medium removal, DMSO was added to dissolve the formazan product, and cell viability was determined by UV–Vis absorption of the resulting formazan at a wavelength of 560 nm in a microplate reader (BMG Labtech/SPECTROstar Nano, Ortenberg, Germany).

HepG2 = assay: Cell viability MTT assay, cancer cells; type: cell-based; conditions: Homo sapiens, HepG2, 24 h
Description: as §2, §3

[4] = E. coli 780, mean ± SD of three independent experiments, read-out: MBC
[5] = E. coli 780, mean ± SD of three independent experiments, read-out: MIC
[6] = S. aureus 1466, mean ± SD of three independent experiments, read-out: MBC
[7] = S. aureus 1466, mean ± SD of three independent experiments, read-out: MIC
[8] = HEK293, HEK-293, 24 h, MTT, read-out: IC50

COc1ccc(C(=O)/C=C/c2ccc(N(C)C)cc2)cc1 [3a]
MBC (E. coli 780; [4]): 750 ± 0.02 µM (≈ 211 µg/mL)
MIC (E. coli 780; [5]): 375 ± 0.01 µM (≈ 106 µg/mL)
ε molar absorptivity ([1]; DMSO): 46000 M⁻¹ cm⁻¹
λabs absorption maximum wavelength ([1]; DMSO): 417 nm
∆λ stokes shifts (λem − λabs) ([1]; DMSO): 115 nm
λem emission maximum wavelength ([1]; DMSO): 532 nm
Φf fluorescence quantum yields ([1]; DMSO): 0.69 ± 0.04
ε molar absorptivity ([1]; MeOH): 30000 M⁻¹ cm⁻¹
λabs absorption maximum wavelength ([1]; MeOH): 417 nm
∆λ stokes shifts (λem − λabs) ([1]; MeOH): 132 nm
λem emission maximum wavelength ([1]; MeOH): 549 nm
Φf fluorescence quantum yields ([1]; MeOH): 0.013 ± 0.006
ε molar absorptivity ([1]; PBS (3%w/w tween 80)): 33000 M⁻¹ cm⁻¹
λabs absorption maximum wavelength ([1]; PBS (3%w/w tween 80)): 416 nm
∆λ stokes shifts (λem − λabs) ([1]; PBS (3%w/w tween 80)): 113 nm
λem emission maximum wavelength ([1]; PBS (3%w/w tween 80)): 529 nm
Φf fluorescence quantum yields ([1]; PBS (3%w/w tween 80)): 0.15 ± 0.02
% photobleaching of absorbance [2]: 50%
% photobleaching of fluorescence [2]: 25%
fluorescence emission ([3]; pH range from 2 to 12, 2 µM): Higher emission peaks
MBC (S. aureus 1466; [6]): 1000 ± 0.09 µM (≈ 281 µg/mL)
MIC (S. aureus 1466; [7]): 375 ± 0.03 µM (≈ 106 µg/mL)
IC50 (HEK-293; [8]): > 100 µM

CN(C)c1ccc(/C=C/C(=O)c2cccs2)cc1 [3b]
MBC (E. coli 780; [4]): 750 ± 0.02 µM (≈ 193 µg/mL)
MIC (E. coli 780; [5]): 250 ± 0.02 µM (≈ 64.3 µg/mL)
IC50 (HepG2; MTT, read-out: IC50): 45 µM
ε molar absorptivity ([1]; DMSO): 31000 M⁻¹ cm⁻¹
λabs absorption maximum wavelength ([1]; DMSO): 431 nm
∆λ stokes shifts (λem − λabs) ([1]; DMSO): 129 nm
λem emission maximum wavelength ([1]; DMSO): 560 nm
Φf fluorescence quantum yields ([1]; DMSO): 0.34 ± 0.04
ε molar absorptivity ([1]; MeOH): 29000 M⁻¹ cm⁻¹
λabs absorption maximum wavelength ([1]; MeOH): 428 nm
∆λ stokes shifts (λem − λabs) ([1]; MeOH): 139 nm
λem emission maximum wavelength ([1]; MeOH): 567 nm
Φf fluorescence quantum yields ([1]; MeOH): 0.012 ± 0.007
ε molar absorptivity ([1]; PBS (3%w/w tween 80)): 37000 M⁻¹ cm⁻¹
λabs absorption maximum wavelength ([1]; PBS (3%w/w tween 80)): 427 nm
∆λ stokes shifts (λem − λabs) ([1]; PBS (3%w/w tween 80)): 93 nm
λem emission maximum wavelength ([1]; PBS (3%w/w tween 80)): 520 nm
Φf fluorescence quantum yields ([1]; PBS (3%w/w tween 80)): 0.11 ± 0.02
% photobleaching of absorbance [2]: 26%
% photobleaching of fluorescence [2]: 43%
fluorescence emission ([3]; pH range from 2 to 12, 2 µM): Higher emission peaks
MBC (S. aureus 1466; [6]): 1000 ± 0.01 µM (≈ 257 µg/mL)
MIC (S. aureus 1466; [7]): 375 ± 0.01 µM (≈ 96.5 µg/mL)
IC50 (HEK-293; [8]): > 100 µM

CN(C)c1ccc(/C=C/C(=O)c2ccc(O)cc2)cc1 [3c]
MBC (E. coli 780; 780): 750 ± 0.01 µM (≈ 200 µg/mL)
MIC (E. coli 780; 780): 250 ± 0.01 µM (≈ 66.8 µg/mL)
IC50 (HepG2): 100 µM
ε molar absorptivity ([1]; DMSO): 10000 M⁻¹ cm⁻¹
λabs absorption maximum wavelength ([1]; DMSO): 413 nm
∆λ stokes shifts (λem − λabs) ([1]; DMSO): 107 nm
λem emission maximum wavelength ([1]; DMSO): 520 nm
Φf fluorescence quantum yields ([1]; DMSO): 0.61 ± 0.04
ε molar absorptivity ([1]; MeOH): 10000 M⁻¹ cm⁻¹
λabs absorption maximum wavelength ([1]; MeOH): 414 nm
∆λ stokes shifts (λem − λabs) ([1]; MeOH): 132 nm
λem emission maximum wavelength ([1]; MeOH): 546 nm
Φf fluorescence quantum yields ([1]; MeOH): 0.017 ± 0.011
ε molar absorptivity ([1]; PBS (3%w/w tween 80)): 13000 M⁻¹ cm⁻¹
λabs absorption maximum wavelength ([1]; PBS (3%w/w tween 80)): 411 nm
∆λ stokes shifts (λem − λabs) ([1]; PBS (3%w/w tween 80)): 115 nm
λem emission maximum wavelength ([1]; PBS (3%w/w tween 80)): 526 nm
Φf fluorescence quantum yields ([1]; PBS (3%w/w tween 80)): 0.11 ± 0.02
% photobleaching of absorbance [2]: 37%
% photobleaching of fluorescence [2]: 50%
fluorescence emission ([3]; basic conditions (pH 9–12), 2 µM): reduced emission signals
MBC (S. aureus 1466; 1466): 1000 ± 0.01 µM (≈ 267 µg/mL)
MIC (S. aureus 1466; 1466): 375 ± 0.01 µM (≈ 100 µg/mL)
IC50 (HEK-293; HEK293, 24 h): > 100 µM

CN(C)c1ccc(/C=C/C(=O)c2ccc(N(C)C)cc2)cc1 [3d]
bacterial growth (OD600 growth curve) (E. coli 780; E. coli 780, increasing concentration, 24 h): significantly inhibited
MBC (E. coli 780; [4]): 375 ± 0.01 µM (≈ 110 µg/mL)
MIC (E. coli 780; [5]): 250 ± 0.01 µM (≈ 73.6 µg/mL)
IC50 (HepG2; MTT, read-out: IC50): 56 µM
ε molar absorptivity ([1]; DMSO): 46000 M⁻¹ cm⁻¹
λabs absorption maximum wavelength ([1]; DMSO): 422 nm
∆λ stokes shifts (λem − λabs) ([1]; DMSO): 94 nm
λem emission maximum wavelength ([1]; DMSO): 516 nm
Φf fluorescence quantum yields ([1]; DMSO): 0.10 ± 0.02
ε molar absorptivity ([1]; MeOH): 37000 M⁻¹ cm⁻¹
λabs absorption maximum wavelength ([1]; MeOH): 423 nm
∆λ stokes shifts (λem − λabs) ([1]; MeOH): 132 nm
λem emission maximum wavelength ([1]; MeOH): 555 nm
Φf fluorescence quantum yields ([1]; MeOH): 0.024 ± 0.015
ε molar absorptivity ([1]; PBS (3%w/w tween 80)): 44000 M⁻¹ cm⁻¹
λabs absorption maximum wavelength ([1]; PBS (3%w/w tween 80)): 422 nm
∆λ stokes shifts (λem − λabs) ([1]; PBS (3%w/w tween 80)): 120 nm
λem emission maximum wavelength ([1]; PBS (3%w/w tween 80)): 542 nm
Φf fluorescence quantum yields ([1]; PBS (3%w/w tween 80)): 0.17 ± 0.03
% photobleaching of absorbance [2]: 51%
% photobleaching of fluorescence [2]: 30%
fluorescence emission ([3]; pH range from 2 to 12, 2 µM): Higher emission peaks
bacterial growth (OD600 growth curve) (S. aureus 1466; S. aureus 1466, increasing concentration, 24 h): significantly inhibited
MBC (S. aureus 1466; [6]): 1000 ± 0.01 µM (≈ 294 µg/mL)
MIC (S. aureus 1466; [7]): 250 ± 0.01 µM (≈ 73.6 µg/mL)
IC50 (HEK-293; [8]): > 100 µM
